Assay results reported in patent publication EP4813381A1, “PHARMACEUTICAL USE OF GUAIANE SESQUITERPENE DERIVATIVE” (Nanjing University Of Chinese Medicine, priority 2023, dated 2025).

Columns and labels:
Rat mast cells (RBL-2H3) = test: Mast cell degranulation test (anti-DNP IgE / DNP-HSA); assay type: cell-based; details: RBL-2H3, IgE+HSA, 4 h, 1 µM
Protocol: Rat mast cells (RBL-2H3) were cultured routinely in DMEM medium containing 10% FBS within a 5% CO2 incubator. Upon reaching 70-80% confluence, cells were uniformly seeded at a density of 1 × 10^5 cells/mL into 6-well plates (2 mL per well), divided into the following groups: Normal, IgE+HSA, Compound 1 (0.01, 0.1, 1, 10 µM). Mast cells were sensitized with 500 µg/L anti-DNP IgE for 12 h. washed with PBS, and cultured for an additional 12 h with 100 µg/L DNP-HSA. Compound 1 at the specified concentrations was then added. […]

[1] = test system: inflammatory cytokines (TNF, IL-6, IL-1); test: LPS mouse sepsis model: Q-PCR of inflammatory factor mRNA in lung, liver and kidney; assay type: in vivo, C57BL/6 mice; details: sepsis mice, 5 mg/kg
Source text: Gently pipette to mix the above reagents. The reaction conditions are as follows:
Detailed information is as follows:

[2] = test system: MC903-induced atopic dermatitis (AD); test: MC903-induced ear atopic dermatitis mouse model, oral Compound 20: dermatitis score, ear thickness, serum IgE; details: 5 mg/kg
[3] = test system: inflammatory factors Tslp, Tnf and Th2-associated factors Il4, Il13, Il31; test: MC903-induced ear atopic dermatitis mouse model, oral Compound 20: Q-PCR of ear; details: ear mRNA, AD mice, 5 mg/kg
[4] = test system: MC903-induced atopic dermatitis (AD); test: MC903-induced ear atopic dermatitis mouse model, Compound 1 ointment: ear thickness and dermatitis score; assay type: in vivo, mice; details: for ear thickness: 1% ointment
Protocol: Weigh white petrolatum, light liquid paraffin, glyceryl monostearate, ethylparaben, and cetyl alcohol. Heat to 65 °C while stirring until dissolved. Slowly add the dissolved active pharmaceutical ingredient (API) while continuing to stir until uniformly mixed. Set aside. • (2) Aqueous Phase Preparation: […] Slowly add the aqueous phase to the oil phase while maintaining 65 °C, homogenize, and continue stirring for 30 min; • (4) Cooling: Stop heating, continue stirring, gradually reduce to room temperature, cool to form an ointment, and fill containers. […] Dissolve these substances in a small amount of propylene glycol, then place the resulting solution into the aforementioned pre-cooled blank ointment base. […] Skin Lesion Severity Score: […] Statistical analysis was performed on the data.

[5] = test system: Th2-related factors Il4, Il13, Il31 and inflammatory factors Tslp, Tnf, Il1; test: MC903-induced ear atopic dermatitis mouse model, Compound 1 ointment: Q-PCR of ear; assay type: in vivo; parameters: unit not given here; details: ear mRNA, AD mice, 1% ointment
Protocol: Except for the Normal group, all other groups underwent AD modeling: 20 µL of MC903 solution (also known as calcipotriol, purchased from Shanghai Yuanye Biotechnology Co., Ltd., used for inducing atopic models) was applied to each mouse's ears once daily for 14 consecutive days to induce the atopic dermatitis model. […] Measure ear thickness changes every 2 days using an electronic caliper before modeling and after treatment initiation.

[6] = test system: Human keratinocytes (Hacat); test: Hyaluronic acid and hyaluronidase levels in UVB-irradiated human keratinocytes; assay type: cell-based; details: UVB 90 mJ/cm^2, 24 h, 1 µM
Protocol: Human keratinocytes (Hacat) were cultured routinely in DMEM medium containing 10% FBS within a 5% CO2 incubator.

[7] = test system: MC903-induced atopic dermatitis (AD); test: MC903-induced AD model on the dorsum of mice, Compound 1 ointment: skin thickness and dermatitis score; assay type: in vivo; parameters: Skin thickness: unit not given here
Protocol: Weigh white petrolatum, light liquid paraffin, glyceryl monostearate, ethylparaben, and cetyl alcohol. Heat to 65 °C while stirring until dissolved. Slowly add the dissolved active pharmaceutical ingredient (API) while continuing to stir until uniformly mixed. Set aside. • (2) Aqueous Phase Preparation: […] Slowly add the aqueous phase to the oil phase while maintaining 65 °C, homogenize, and continue stirring for 30 min; • (4) Cooling: Stop heating, continue stirring, gradually reduce to room temperature, cool to form an ointment, and fill containers. […] Dissolve these substances in a small amount of propylene glycol, then place the resulting solution into the aforementioned pre-cooled blank ointment base. […] Establishment of the AD Model on the Dorsum of Mice and Drug Administration: […] Except for the Normal group, all other groups underwent AD modeling: 48 hours prior to the experiment, hair on the dorsal neck region was meticulously removed using clippers and depilatory cream. […] Model and control group mice received daily application of blank ointment. Twenty-four hours after completing the 14-day modeling period, photographs of skin lesions were taken, and skin lesion and blood samples were collected. Skin Lesion Severity Score: […] Statistical analysis was performed on the data.

C[C@@H]1C[C@H]2[C@@H]3CCC4=CC(=O)C=C[C@]4(C)[C@@]3(F)[C@@H](O)C[C@]2(C)[C@@]1(O)C(=O)CO [Dex, Dexamethasone, reference compound]
β-Glucosaminidase (Rat mast cells (RBL-2H3)): 9.78 ± 0.01 ng/mL
Tnf ([1]; kidney mRNA (relative, Gapdh)): 6.62±0.68
Tnf ([1]; liver mRNA (relative, Gapdh)): 7.04±0.77
Tnf ([1]; lung mRNA (relative, Gapdh)): 8.99 ± 0.76
atopic dermatitis score ([2]; Day 1): 0.00±0.00
ear thickness ([2]; Day 1): 0.20±0.00 mm
atopic dermatitis score ([2]; Day 3): 0.67±0.21
ear thickness ([2]; Day 3): 0.23±0.00 mm
atopic dermatitis score ([2]; Day 5): 1.50±0.22
ear thickness ([2]; Day 5): 0.25±0.00 mm
atopic dermatitis score ([2]; Day 7): 2.00±0.26
ear thickness ([2]; Day 7): 0.26±0.00 mm
atopic dermatitis score ([2]; Day 8): 2.83±0.31
ear thickness ([2]; Day 8): 0.26±0.00 mm
atopic dermatitis score ([2]; Day 9): 3.00±0.00
ear thickness ([2]; Day 9): 0.27±0.00 mm
atopic dermatitis score ([2]; Day 10): 3.17±0.17
ear thickness ([2]; Day 10): 0.28±0.00 mm
atopic dermatitis score ([2]; Day 11): 3.50±0.22
ear thickness ([2]; Day 11): 0.27±0.00 mm
atopic dermatitis score ([2]; Day 12): 3.00±0.26
ear thickness ([2]; Day 12): 0.27±0.00 mm
atopic dermatitis score ([2]; Day 13): 2.67±0.21
ear thickness ([2]; Day 13): 0.27±0.00 mm
atopic dermatitis score ([2]; Day 14): 2.00±0.26
ear thickness ([2]; Day 14): 0.26±0.00 mm
IgE ([2]; serum, AD mice): 191.65 ± 39.26 ng/mL
TSLP [3]: 2.13±0.26
Tnf [3]: 2.30±0.36
ear thickness ([4]; Day 1): 0.15±0.00 mm
ear thickness ([4]; Day 3): 0.18±0.00 mm
ear thickness ([4]; Day 5): 0.22±0.00 mm
ear thickness ([4]; Day 7): 0.24±0.01 mm
ear thickness ([4]; Day 8): 0.24±0.00 mm
ear thickness ([4]; Day 9): 0.24±0.01 mm
ear thickness ([4]; Day 10): 0.25±0.01 mm
ear thickness ([4]; Day 11): 0.26±0.01 mm
ear thickness ([4]; Day 12): 0.28±0.00 mm
ear thickness ([4]; Day 13): 0.27±0.01 mm
ear thickness ([4]; Day 14): 0.26±0.01 mm
Dermatitis Score ([4]; ear, 1% ointment for 7 days, score max 12): 3.50±0.22
TSLP [5]: 1.30 ±0.17
Tnf [5]: 1.38 ±0.22
Hyaluronidase [6]: 87.14 ± 9.63 ng/mL
Dermatitis Score ([7]; back, 1% ointment for 7 days, score max 12): 4.17±0.31
Skin thickness ([7]; dorsal region, AD mice, 1% ointment): 30.44±0.62
